Results: US8263644B2, “Cytotoxic xanthone compounds” (Bristol-Myers Squibb Company, priority 2007, dated 2012)
≈ marks a conversion by molar mass, not a printed value. Like-named read-outs stand apart in the source and are kept apart here.

Assays:
[1] = system: Escherichia coli SOS chromotest; test: Escherichia coli SOS chromotest (TLC/HPLC biogram); format: cell-based; details: E. coli SOS chromotest
Description: The crude extracts as received were subjected to a modified “Kupchan” liquid-liquid partitioning sequence, (Kupchan, S. M., Britton, R. W., Ziegler, M. F., Sigel, C. W.; J. Org. Chem., 1973, 38, 178-179.), followed by gel partition chromatography (Sephadex LH-20) and/or Silica gel vacuum liquid chromatography. The fractionation was guided initially by TLC-bioautography using the Escherichia coli SOS chromotest assay. ((a) Quillardet, P.; Huisman, O.; D'Ari, R.; Hofnung, M. Proc. Natl. Acad. Sci. U.S.A. 1982, 79, 5971-5975. (b) Mamber, S. W.; Okasinski, W. G.; Pinter, C. D.; Tunac, J. B. Mutat. Res., 1986, 171, 83-90.). More precise localization of the peak of SOS activity was later made possible using HPLC biogram methodology. ((a) Fura, A.; Shu, Y.-Z.; Zhu, M.; Hanson, R. L.; Roongta, V.; Humphreys, W. G. J. Med. Chem. 2004, 47, 4339-4351. (b) Hook, D. J., More, C. F., Yacobucci, J. J., Dubay, G., O'Connor, S.; J. Chromatogr., 1987, 385, 99-108.). In this manner, analytical HPLC was used to further fractionate the SOS-active sample into 96-deep-well plates. […]
General Experimental Procedures. […] High-resolution MS data were determined by HR +νe ESI on a Thermo Scientific Finnigan MAT900 (magnetic sector MS, polypropylene glycol reference) or Orbitrap (hybrid ion trap-FTICR MS). IR spectra were recorded with a Perkin-Elmer System 2000 FT-IR instrument (thin film-NaCl). […]

[2] = system: ABAE cells (bovine endothelial cell line); test: in vitro cytotoxicity, ABAE bovine endothelial cells; format: cell-based; details: versus the tumor cell lines
Procedure: (§1) In particular there was a clear in vitro cytotoxicity observed against ABAE cells (bovine endothelial cell line, 0.03 μg/ml).
(§2) General Experimental Procedures. NMR spectra were obtained on a Bruker DRX 500 MHz spectrometer, equipped with a 5-mm TXI cryoprobe. Proton and carbon chemical shifts are reported in ppm relative to DMSO at δH 2.49 and δC 39.6. LC-NMR on an enriched psoroxanthin (4) sample was conducted with a Varian Inova 600 MHz instrument, using a YMC ODS-AQ (C18) column, 4.6×150 mm, 3μ and mobile phase water-acetonitrile 7:3, isocratic, 1.2 ml/min flow rate. Low-resolution MS and MS/MS measurements were performed by +νe ESI on a Thermo Scientific Finnigan SSQ7000 (single quadrupole MS), TSQ7000 (triple quadrupole MS), or LCQ Classic (ion trap MS). High-resolution MS data were determined by HR +νe ESI on a Thermo Scientific Finnigan MAT900 (magnetic sector MS, polypropylene glycol reference) or Orbitrap (hybrid ion trap-FTICR MS). IR spectra were recorded with a Perkin-Elmer System 2000 FT-IR instrument (thin film-NaCl). UV spectra were obtained using a Hewlett-Packard 8452A diode array spectrophotometer. Sephadex LH-20 (Pharmacia Biotech) and LiChroprep Si 60, 25-40 μm (EM Separations) were used for column chromatography. HPLC(C18) conditions: Analytical: Agilent HP-1100, Waters corp. X-Terra 5 μl (C18) column, 4.6×150 mm; mobile phase: 0.01 N potassium phosphate buffer pH 3.5-acetonitrile gradient, flow rate 1.2 ml/min. UV 254 nm (Hook, D. J., More, C. F., Yacobucci, J. J., Dubay, G., O'Connor, S.; J. Chromatogr., 1987, 385, 99-108.) Preparative: Beckman System Gold workstation, YMC ODS-A 5μ (C18) column, 20×100 mm. For TLC biogram (SOS) analyses, Silica gel plates (Analtech, 0.25 mm) with chloroform-methanol mixtures (i.e. 95:5 v/v) as the mobile phase were used. For HPLC biogram (SOS) analyses, fractions were collected into Beckman 96-deepwell plates using a Gilson 215 liquid handler and dried under nitrogen stream prior to bioassay. […]
(§3) The SOS active compounds 1 and 4 were evaluated for in vitro cytotoxicity in a variety of tumor cell lines. […]

[3] = as above; format: cell-based; details: bovine, ABAE endothelial cells; ABAE cell line
Procedure: as §1, §2, §3

HCT-116 = test: in vitro cytotoxicity, tumor cell line HCT-116; format: cell-based; details: Homo sapiens
Procedure: as §2, with “corp.” for “corp. X-Terra 5 μl (C18) column, 4.6×150 mm; mobile phase: 0.01 N potassium phosphate buffer pH 3.5-acetonitrile gradient, flow rate 1.2 ml/min. UV 254 nm (Hook, D. J., More, C. F., Yacobucci, J. J., Dubay, G., O'Connor, S.; J. Chromatogr., 1987, 385, 99-108.) Preparative: Beckman System Gold workstation, YMC ODS-A 5μ (C18) column, 20×100 mm. For TLC biogram (SOS) analyses, Silica gel plates (Analtech, 0.25 mm) with chloroform-methanol mixtures (i.e. 95:5 v/v) as the mobile phase were used. For HPLC biogram (SOS) analyses, fractions were collected into Beckman 96-deepwell plates using a Gilson 215 liquid handler and dried under nitrogen stream prior to bioassay.”
as §3

6-cell line panel = test: cytotoxicity in a 6-cell line panel; format: cell-based; details: read-out: mean IC50, cytotoxicity
Procedure: as §1
as §2, with “corp.” for “corp. X-Terra 5 μl (C18) column, 4.6×150 mm; mobile phase: 0.01 N potassium phosphate buffer pH 3.5-acetonitrile gradient, flow rate 1.2 ml/min. UV 254 nm (Hook, D. J., More, C. F., Yacobucci, J. J., Dubay, G., O'Connor, S.; J. Chromatogr., 1987, 385, 99-108.) Preparative: Beckman System Gold workstation, YMC ODS-A 5μ (C18) column, 20×100 mm. For TLC biogram (SOS) analyses, Silica gel plates (Analtech, 0.25 mm) with chloroform-methanol mixtures (i.e. 95:5 v/v) as the mobile phase were used. For HPLC biogram (SOS) analyses, fractions were collected into Beckman 96-deepwell plates using a Gilson 215 liquid handler and dried under nitrogen stream prior to bioassay.”

SKBR3 = test: in vitro cytotoxicity, tumor cell line SKBR3; format: cell-based; details: Homo sapiens, SK-BR-3, read-out: Cytotoxicity IC50
Procedure: as §2, with “corp.” for “corp. X-Terra 5 μl (C18) column, 4.6×150 mm; mobile phase: 0.01 N potassium phosphate buffer pH 3.5-acetonitrile gradient, flow rate 1.2 ml/min. UV 254 nm (Hook, D. J., More, C. F., Yacobucci, J. J., Dubay, G., O'Connor, S.; J. Chromatogr., 1987, 385, 99-108.) Preparative: Beckman System Gold workstation, YMC ODS-A 5μ (C18) column, 20×100 mm. For TLC biogram (SOS) analyses, Silica gel plates (Analtech, 0.25 mm) with chloroform-methanol mixtures (i.e. 95:5 v/v) as the mobile phase were used. For HPLC biogram (SOS) analyses, fractions were collected into Beckman 96-deepwell plates using a Gilson 215 liquid handler and dried under nitrogen stream prior to bioassay.”
as §3

A2780 = test: in vitro cytotoxicity, tumor cell line A2780; format: cell-based; details: Homo sapiens
Procedure: as §2, with “corp.” for “corp. X-Terra 5 μl (C18) column, 4.6×150 mm; mobile phase: 0.01 N potassium phosphate buffer pH 3.5-acetonitrile gradient, flow rate 1.2 ml/min. UV 254 nm (Hook, D. J., More, C. F., Yacobucci, J. J., Dubay, G., O'Connor, S.; J. Chromatogr., 1987, 385, 99-108.) Preparative: Beckman System Gold workstation, YMC ODS-A 5μ (C18) column, 20×100 mm. For TLC biogram (SOS) analyses, Silica gel plates (Analtech, 0.25 mm) with chloroform-methanol mixtures (i.e. 95:5 v/v) as the mobile phase were used. For HPLC biogram (SOS) analyses, fractions were collected into Beckman 96-deepwell plates using a Gilson 215 liquid handler and dried under nitrogen stream prior to bioassay.”
as §3

p388 mouse leukemia = details: cited from earlier work
various tumor cell lines = details: cited from earlier work

Row | Structure (SMILES) | SOS activity [1] | selectivity against bovine endothelial cells (ABAE) [2] | IC50 [3] [nM] | IC50 (HCT-116; HCT-116, read-out: Cytotoxicity IC50) [nM] | IC50 (6-cell line panel) [µg/mL] | IC50 (SKBR3) [nM] | IC50 (A2780; A2780, read-out: Cytotoxicity IC50) [nM] | IC50 (HCT-116; HCT-116 cell line, read-out: Cytotoxicity IC50) [nM] | IC50 (6-cell line panel; mean over 6-cell line panel) [µg/mL] | IC50 (A2780; A2780 cell line, read-out: Cytotoxicity IC50) [nM] | activity in vivo against p388 mouse leukemia (p388 mouse leukemia) | activity in vitro against various tumor cell lines (various tumor cell lines)
1 | O=c1c2c(O)cccc2oc2ccc3c(c12)CC(C(O)(CO)CCl)O3 (centres unmarked) [Example 1, 3′,4′-deoxy-4′ chloropsoroxanthin-3′,5′-diol] | SOS-active | showed selectivity against bovine endothelial cells (ABAE) | 4 | 68 | 0.2 to 4 (≈ 0.551 to 11 µM) | 2000 | 42 |  |  |  |  | 
2 | O=c1c2c(O)cccc2oc2ccc3c(c12)CC(C1(CO)CO1)O3 (centres unmarked) [Example 4, Psoroxanthin] | highly potent SOS-active |  | 102 |  |  |  |  | 1000 | 0.2 to 4 (≈ 0.613 to 12.3 µM) | 330 |  | 
3 | COc1cc2c(c3oc4c(O)cccc4c(=O)c13)C[C@H]([C@@]1(C)CO1)O2 [psorospermin] |  |  |  |  |  |  |  |  |  |  | significant activity | significant activity
